Results from patent publication US20250122182A1 (Isosterix, Inc., priority 2023, published 2025).

What was measured:
[1] = target: Recombinant KAT6A/MOZ (488-778) protein (Homo sapiens (Human), UniProt Q92794); experiment: KAT6A AlphaLISA Inhibition Screening Assay; type: biochemical; details: for inhibition at 1 µM: read-out: Average Kat6A % inhibition @ 1 μM; for inhibition at 10 µM: read-out: Average Kat6A % inhibition @ 10 μM
Summary of the method: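 25 nM KAT6A (488-778) pre-incubated 60 or 10 min with compound (10-point, 3-fold from 10 μM), then 400 nM acetyl-CoA and 200 nM biotin-H3(1-21) peptide added for 120 min at RT in pH 8.0 Tris buffer with 330 nM TSA. Acetylation read by AlphaLISA (anti-acetyl-lysine acceptor/streptavidin donor beads); % inhibition vs vehicle.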

FLAG-Tagged Kat6A = FLAG-Tagged Kat6A (Homo sapiens (Human), UniProt Q92794); experiment: KAT6A IC50 using FLAG-tagged Kat6A (radioisotope-based filtration assay); details: 60 minutes preincubation with enzyme; Histone H3 peptide substrate; 1 μM Acetyl-CoA; read-out: Biochemical assay:Kat6A IC50
Protocol: (§1) Compounds were suspended in as a stock of 10 mM in DMSO. Compounds were diluted and tested in 10-doses with 3-fold serial dilutions starting with 10 μM as the highest concentration. Compounds were preincubated in the reaction mixture with the enzyme (5 nM KAT6A, amino acids 488-778 with an N-terminal FLAG tag incorporated; 10 nM […] protein, amino acids 657-1069 with an N-terminal GST tag). This preincubation was for 60 minutes prior to the addition of substrate. […] Reactions were performed in reaction buffer 50 mM Tris-HCl, pH 8.0, 50 mM NaCl, 0.1 mM EDTA, […], 1% DMSO and the reactions initiated with the addition of Acetyl-CoA as a co-factor, with histone acetylation measured with a radiometric activity assay using a radioisotope-based filtration assay. Inhibition of acetylation was calculated using with standard curve-fitting model and IC50 determination.

GST-Tagged Kat6B = GST-Tagged Kat6B (Homo sapiens (Human), UniProt Q8WYB5); experiment: Kat6B IC50 using GST-tagged Kat6B (radioisotope-based filtration assay); details: 60 minutes preincubation with enzyme; Histone H4 peptide substrate; 1 μM Acetyl-CoA; read-out: Biochemical assay:Kat6B IC50
Protocol: as §1

ZR-75-1 cells = experiment: Cell Titer-Glo Luminescent Cell Viability Assay in ZR-75-1 Cells; type: cell-based; details: compounds replenished every 48 hours till day 10, CellTiter-Glo
Protocol: The CellTiter-Glo® Luminescent Cell Viability Assay is a homogeneous method employed to determine the number of metabolically active cells in culture. On day 0, ZR-75-1 cells were detached completely from the culture flasks using 0.25% trypsin-EDTA (Catalog #25200056, Gibco). ZR-75-1 cells were seeded into white opaque-96 well culture plate (Catalog #6005680, Perkin Elmer) at a density of 1500 cells per well in 200 μL of RPMI 1640 medium (Catalog #A1049101, Gibco) supplemented with 10% Fetal Bovine Serum (Catalog #16000044, Gibco) and 1× Penicillin-Streptomycin (Catalog #15140122, Gibco). The plates were incubated at 37° C. with 5% CO2 for 24 hours. On day 1, the spent media was removed from each well of the plate and 180 μL of fresh RPMI 1640 complete media was added. Test compounds were diluted in 100% DMSO followed by complete media. 20 μL of media containing compounds were added to each well so that the final DMSO concentration was 0.5%. The test compounds were tested for 10 points DRC (10 μM top concentration, 3-fold dilution). The assay plates were incubated at 37° C. with 5% CO2 for 48 hours. The test compounds and media were replenished every 48 hours till day 10.
On day 10, the CellTiter-Glo® 2.0 reagent (Catalog #G9242, Promega) was thawed and equilibrated to room temperature. Assay plates were removed from the incubator and equilibrated to room temperature for about 30 minutes. 100 μL of spent media was removed from each well and then 50 μL of CellTiter-Glo® 2.0 Reagent was added. The plates were incubated on an orbital shaker at room temperature for 10 minutes to induce cell lysis and stabilize luminescent signal. The luminescent signal was recorded using Perkin Elmer Envision multi-mode plate reader. Percent cytotoxicity induced by test compounds was determined relative to vehicle control. EC50 value for test compounds was calculated using GraphPad Prism software (four parameter-variable slope equation).

Recombinant KAT6A/MOZ (488-778) protein, sequence (Q92794 488-778): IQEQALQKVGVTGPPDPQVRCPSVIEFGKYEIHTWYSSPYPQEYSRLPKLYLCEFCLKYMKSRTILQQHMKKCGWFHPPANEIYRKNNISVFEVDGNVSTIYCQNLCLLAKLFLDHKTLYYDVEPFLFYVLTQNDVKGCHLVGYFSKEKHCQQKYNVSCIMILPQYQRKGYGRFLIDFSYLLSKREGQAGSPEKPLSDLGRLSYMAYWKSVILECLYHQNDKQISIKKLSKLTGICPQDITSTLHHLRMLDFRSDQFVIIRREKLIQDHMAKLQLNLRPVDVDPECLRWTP
FLAG-Tagged Kat6A, sequence (Q92794 488-778): as above
GST-Tagged Kat6B, sequence (Q8WYB5 657-1069): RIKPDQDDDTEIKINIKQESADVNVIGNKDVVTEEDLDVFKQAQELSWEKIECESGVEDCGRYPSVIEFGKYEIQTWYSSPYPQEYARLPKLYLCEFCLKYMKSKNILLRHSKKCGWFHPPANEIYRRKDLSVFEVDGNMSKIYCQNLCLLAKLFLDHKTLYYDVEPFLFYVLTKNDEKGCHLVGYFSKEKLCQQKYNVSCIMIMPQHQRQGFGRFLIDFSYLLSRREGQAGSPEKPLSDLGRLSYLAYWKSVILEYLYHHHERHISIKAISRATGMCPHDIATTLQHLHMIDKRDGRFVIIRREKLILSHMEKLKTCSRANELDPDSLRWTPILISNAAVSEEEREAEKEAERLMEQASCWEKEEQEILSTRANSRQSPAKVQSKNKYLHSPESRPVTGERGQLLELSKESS

inhibition at 1 µM ([1]; 1 μM test compound) | inhibition at 10 µM ([1]; 10 μM test compound) | IC50 (FLAG-Tagged Kat6A) | IC50 (GST-Tagged Kat6B) | Average Kat6A % inhibition @ 1 μM ([1]; 1 μM test compound) | Average Kat6A % inhibition @ 10 μM ([1]; 10 μM test compound) | Compound | EC50 (ZR-75-1 cells; Homo sapiens) | EC50 (ZR-75-1 cells)
100% | 100% | 5 nM | 1020 nM | – | – | CC#CC(=O)NCc1cnn(Cc2cc(OC)c3c(NS(=O)(=O)c4cc(CC)ccc4OC)noc3c2)c1 [Syn. Ex. 15, N-((1-((3-((5-ethyl-2-methoxyphenyl)sulfonamido)-4-methoxybenzo[d]isoxazol-6-yl)methyl)-1H-pyrazol-4-yl)methyl)but-2-ynamide] | 100 to 1000 nM | –
100% | 100% | 2 nM | 878 nM | – | – | C=C(F)C(=O)NCc1cnn(Cc2cc(OC)c3c(NS(=O)(=O)c4cc(CC)ccc4OC)noc3c2)c1 [Syn. Ex. 14, N-((1-((3-((5-ethyl-2-methoxyphenyl)sulfonamido)-4-methoxybenzo[d]isoxazol-6-yl)methyl)-1H-pyrazol-4-yl)methyl)-2-fluoroacrylamide] | < 100 nM | –
– | – | 2 nM | 722 nM | 100% | 100% | COC(=O)NCc1cnn(Cc2cc(OC)c3c(NS(=O)(=O)c4cc5c(cc4OC)CCC5)noc3c2)c1 [Syn. Ex. 25, methyl ((1-((4-methoxy-3-((6-methoxy-2,3-dihydro-1H-indene)-5-sulfonamido)benzo[d]isoxazol-6-yl)methyl)-1H-pyrazol-4-yl)methyl)carbamate] | – | < 100 nM
